Experiments:
MKK7β(h) = biological target: T1, MKK7β(h) (Homo sapiens, UniProt O14733); assay: Kinase screen; type: biochemical; settings: 0.1% DMSO control = 100%
T1 construct: purchased Millipore (KinaseProfiler service)

Rsk1(h) = biological target: T2, Rsk1(h) (Homo sapiens, UniProt Q15418); assay: Kinase screen; type: biochemical; settings: 0.1% DMSO control = 100%
T2 construct: purchased Millipore (KinaseProfiler Service)

MKP5(h) = biological target: T3, MKP5(h) (Homo sapiens, UniProt Q9Y6W6); assay: Phosphatase screen; type: biochemical; settings: 0.1% DMSO control = 100%
T3 construct: purchased Millipore (KinaseProfiler service)

EphA5(h) = biological target: T4, EphA5(h) (Homo sapiens, UniProt P54756); assay: Kinase screen; type: biochemical; settings: 0.1% DMSO control = 100%
T4 construct: purchased Millipore (KinaseProfiler service)

SW480 cells [1] = assay: BrdU/PI cell cycle analysis; type: cell-based; settings: 25 μM, 72 h
Experimental: Cell cycle progression was measured by BrdU labeling of cultured cells that were counterstained with propidium iodide (PI).
SW480 cells were seeded and exposed to compounds for 3 days changing medium every day as described in Example 24. After a 30 minute incubation with 10 μM BrdU, the cells were trypsinized and stained with 1:100 diluted mouse anti-BrdU antibody (Roche) and Alexa Fluor®488 goat anti-mouse antibody (A 11001, Invitrogen). Counterstaining was done with 10 μg/mL PI in 200 μg/mL RNase I (both Sigma). Samples were analyzed on the PAS-PPCS flow cytometer and cell sorter (Partec).

CDK7/cyclinH/MAT1(h) = biological target: T5, CDK7/cyclinH/MAT1(h) (Homo sapiens, UniProt P50613); assay: Kinase screen; type: biochemical; settings: 0.1% DMSO control = 100%
T5 construct: purchased Millipore (KinaseProfiler service)

SW480 cells [2] = assay: Illumina microarray gene expression analysis; type: cell-based
Experimental: A microarray analysis using an Illumina® array was performed in triplicate to investigate differential gene expression in cells treated with a Wnt pathway inhibitor. […] In vitro transcription reactions were incubated overnight (14 hr). Labeled cRNA was hybridized to Illumina® Human-6 v3 BeadChips (Illumina, San Diego, Calif.) at 58° C. overnight, according to the Illumina® Whole-Genome Gene Expression Protocol for BeadStation (Doc. #11226030.rev.C, Illumina Inc.). The hybridized BeadChip was stained with streptavidin-Cy3 (Amersham™, PA43001) for visualization and scanned with an Illumina® BeadArray Reader. The scanned images were imported into BeadStudio 3.1.3.0 (Illumina Inc) for extraction and quality control. A criterion of 0.5-fold change in expression was applied to the analysis. […] A list of differentially expressed genes of interest is given below in tables 1 and 2. […] Many known Wnt target genes (column 3) were influenced in treated cells. Some genes were influenced that are also affected in Ls174T colorectal cancer cells expressing an inducible dominant negative form of TCF-4 (column 4) (van de Wetering et al., Mol. Cell. Biol. (2008) 28(8), p. 2732-44). Other influenced genes that are important for cell cycle control and other genes correlated to regulated canonical Wnt signaling are also shown. The degree of modulation (column 5) is an indication of the degree of change between the non-treated and compound No. 1 treated samples.

T3 sequence (Q9Y6W6 whole entry): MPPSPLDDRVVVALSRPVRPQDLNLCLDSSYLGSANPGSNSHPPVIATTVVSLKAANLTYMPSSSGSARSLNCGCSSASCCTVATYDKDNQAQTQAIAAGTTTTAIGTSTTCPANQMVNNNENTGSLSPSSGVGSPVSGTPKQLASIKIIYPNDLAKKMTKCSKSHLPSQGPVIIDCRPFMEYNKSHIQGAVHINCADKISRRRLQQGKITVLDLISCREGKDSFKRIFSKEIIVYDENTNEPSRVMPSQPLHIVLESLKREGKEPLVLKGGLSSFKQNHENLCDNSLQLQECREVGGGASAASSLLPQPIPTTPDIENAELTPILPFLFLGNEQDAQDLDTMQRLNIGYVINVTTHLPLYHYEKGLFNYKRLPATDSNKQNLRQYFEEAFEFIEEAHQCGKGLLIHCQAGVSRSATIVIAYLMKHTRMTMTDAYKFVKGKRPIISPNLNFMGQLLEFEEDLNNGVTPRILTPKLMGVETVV
T1 sequence (O14733 whole entry): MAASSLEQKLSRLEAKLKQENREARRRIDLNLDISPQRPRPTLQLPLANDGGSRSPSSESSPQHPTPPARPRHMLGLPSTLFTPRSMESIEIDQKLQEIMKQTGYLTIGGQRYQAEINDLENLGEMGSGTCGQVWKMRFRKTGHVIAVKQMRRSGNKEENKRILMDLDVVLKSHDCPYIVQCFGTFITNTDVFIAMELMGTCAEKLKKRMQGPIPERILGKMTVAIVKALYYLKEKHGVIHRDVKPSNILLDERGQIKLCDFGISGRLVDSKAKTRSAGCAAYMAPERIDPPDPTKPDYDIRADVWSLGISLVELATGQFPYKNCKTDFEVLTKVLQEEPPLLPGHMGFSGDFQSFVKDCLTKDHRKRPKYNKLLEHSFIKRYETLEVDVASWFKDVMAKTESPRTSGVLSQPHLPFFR
T2 sequence (Q15418 whole entry): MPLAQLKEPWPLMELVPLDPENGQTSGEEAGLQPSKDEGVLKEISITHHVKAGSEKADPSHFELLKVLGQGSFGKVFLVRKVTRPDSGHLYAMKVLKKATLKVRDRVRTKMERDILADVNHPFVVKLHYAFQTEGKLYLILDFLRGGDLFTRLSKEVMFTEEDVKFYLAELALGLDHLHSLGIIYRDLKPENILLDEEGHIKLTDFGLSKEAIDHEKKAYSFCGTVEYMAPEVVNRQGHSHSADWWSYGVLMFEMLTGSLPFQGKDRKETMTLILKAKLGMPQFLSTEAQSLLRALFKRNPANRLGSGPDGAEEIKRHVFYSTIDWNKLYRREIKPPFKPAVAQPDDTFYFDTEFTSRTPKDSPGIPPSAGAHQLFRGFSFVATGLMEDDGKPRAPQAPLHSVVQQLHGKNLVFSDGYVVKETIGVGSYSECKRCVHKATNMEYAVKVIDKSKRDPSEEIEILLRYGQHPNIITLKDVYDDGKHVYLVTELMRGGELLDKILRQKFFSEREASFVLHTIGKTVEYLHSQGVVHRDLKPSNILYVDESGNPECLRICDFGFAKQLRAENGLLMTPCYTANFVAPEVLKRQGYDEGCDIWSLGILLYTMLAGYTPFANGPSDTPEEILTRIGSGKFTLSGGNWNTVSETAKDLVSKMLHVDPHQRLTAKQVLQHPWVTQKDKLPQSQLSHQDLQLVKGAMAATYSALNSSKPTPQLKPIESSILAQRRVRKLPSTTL
T4 sequence (P54756 25-1037): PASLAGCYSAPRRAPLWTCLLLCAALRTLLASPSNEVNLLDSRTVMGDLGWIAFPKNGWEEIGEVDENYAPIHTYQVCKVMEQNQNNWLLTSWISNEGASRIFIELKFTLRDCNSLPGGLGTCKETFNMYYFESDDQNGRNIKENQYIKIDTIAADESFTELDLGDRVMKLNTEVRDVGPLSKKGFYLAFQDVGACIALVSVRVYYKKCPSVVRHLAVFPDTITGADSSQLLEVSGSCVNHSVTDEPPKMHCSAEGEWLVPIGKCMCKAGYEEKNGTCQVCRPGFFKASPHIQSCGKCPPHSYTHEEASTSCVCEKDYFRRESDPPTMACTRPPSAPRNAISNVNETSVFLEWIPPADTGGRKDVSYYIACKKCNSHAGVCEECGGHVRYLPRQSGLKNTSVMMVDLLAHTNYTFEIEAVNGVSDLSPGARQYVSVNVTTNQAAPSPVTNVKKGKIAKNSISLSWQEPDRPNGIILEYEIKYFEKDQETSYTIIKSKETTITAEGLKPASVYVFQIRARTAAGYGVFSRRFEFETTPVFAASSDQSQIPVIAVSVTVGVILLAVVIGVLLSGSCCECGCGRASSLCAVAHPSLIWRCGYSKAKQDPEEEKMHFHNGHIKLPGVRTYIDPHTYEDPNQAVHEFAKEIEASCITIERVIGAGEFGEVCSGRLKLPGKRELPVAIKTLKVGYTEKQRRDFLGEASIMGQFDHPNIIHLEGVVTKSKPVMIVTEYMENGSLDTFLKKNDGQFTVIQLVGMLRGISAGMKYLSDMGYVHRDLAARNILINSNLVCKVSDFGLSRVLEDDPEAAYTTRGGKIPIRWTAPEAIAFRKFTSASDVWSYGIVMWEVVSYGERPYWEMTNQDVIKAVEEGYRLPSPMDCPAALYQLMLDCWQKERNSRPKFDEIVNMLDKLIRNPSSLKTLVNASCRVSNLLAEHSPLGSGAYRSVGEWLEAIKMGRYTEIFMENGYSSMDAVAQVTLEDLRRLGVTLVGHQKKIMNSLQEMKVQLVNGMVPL
T5 sequence (P50613 whole entry): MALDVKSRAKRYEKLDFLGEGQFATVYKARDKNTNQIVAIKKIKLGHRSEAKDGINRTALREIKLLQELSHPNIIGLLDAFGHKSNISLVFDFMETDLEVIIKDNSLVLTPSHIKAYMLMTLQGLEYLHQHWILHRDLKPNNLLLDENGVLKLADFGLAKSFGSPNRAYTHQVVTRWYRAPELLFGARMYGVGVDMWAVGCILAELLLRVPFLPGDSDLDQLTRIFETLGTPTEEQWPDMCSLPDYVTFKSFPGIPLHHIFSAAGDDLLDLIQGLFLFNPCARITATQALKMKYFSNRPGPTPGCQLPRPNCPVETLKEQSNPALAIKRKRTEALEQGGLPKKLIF
T5 sequence (P51946 whole entry partner): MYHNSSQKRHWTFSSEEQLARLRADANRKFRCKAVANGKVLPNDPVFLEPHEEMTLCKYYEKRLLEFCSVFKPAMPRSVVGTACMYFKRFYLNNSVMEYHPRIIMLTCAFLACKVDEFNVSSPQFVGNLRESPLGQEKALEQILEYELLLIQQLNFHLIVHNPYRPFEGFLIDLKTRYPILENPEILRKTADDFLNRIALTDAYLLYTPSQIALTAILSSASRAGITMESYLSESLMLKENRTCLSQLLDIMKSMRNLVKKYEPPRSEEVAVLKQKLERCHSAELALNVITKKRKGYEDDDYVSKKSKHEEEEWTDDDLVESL
T5 sequence (P51948 whole entry partner): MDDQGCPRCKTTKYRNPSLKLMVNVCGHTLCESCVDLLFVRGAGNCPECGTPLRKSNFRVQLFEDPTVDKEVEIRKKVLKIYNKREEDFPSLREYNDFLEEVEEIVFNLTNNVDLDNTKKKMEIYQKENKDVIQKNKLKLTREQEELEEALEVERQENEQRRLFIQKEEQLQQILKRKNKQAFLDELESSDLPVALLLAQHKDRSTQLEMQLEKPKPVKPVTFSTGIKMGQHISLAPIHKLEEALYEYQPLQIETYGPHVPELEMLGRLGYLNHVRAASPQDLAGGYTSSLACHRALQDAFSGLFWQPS

Q: What does the source list for `COc1ccc(-n2c(SCc3nc(-c4ccc(C)cc4)no3)nnc2-c2ccncc2)cc1` [Compound 1]?
A: activity at 10 µM (MKK7β(h)): 90%; activity at 10 µM (Rsk1(h)): 108%; activity at 10 µM (MKP5(h)): 99%; activity at 10 µM (EphA5(h)): 99%; percentage of cells in S phase (SW480 cells [1]; DMSO control 28.4%): 16.2%; percentage of G1-phase cells (SW480 cells [1]; DMSO control 37.3%): 46.4%; activity at 10 µM (CDK7/cyclinH/MAT1(h)): 108%; Degree of modulation: CCAAT/enhancer binding protein (C/EBP), delta (SW480 cells [2]; x at 10 μM and 25 μM): − (moderate down-regulation (log^2 ratio of between −0.5 and −1.0)); Degree of modulation: Kruppel-like factor 4 (gut) (SW480 cells [2]; x at 10 μM and 25 μM): + (moderate up-regulation (log^2 ratio of between 0.5 and 1.0)); Degree of modulation: Kruppel-like factor 6 (SW480 cells [2]; x at 10 μM and 25 μM): ++ (strong up-regulation (log^2 ratio of between 1.0 and 1.5)); Degree of modulation: LY6/PLAUR domain containing 5 (SW480 cells [2]; x at 10 μM and 25 μM): −−− (very strong down-regulation (log^2 ratio of between −1.5 and −2)); Degree of modulation: LY6/PLAUR domain containing 6B (SW480 cells [2]; x at 10 μM and 25 μM): ++ (strong up-regulation (log^2 ratio of between 1.0 and 1.5)); Degree of modulation: SPANXA1 (SW480 cells [2]; x at 10 μM and 25 μM): −−− (very strong down-regulation (log^2 ratio of between −1.5 and −2)); Degree of modulation: SPANXB2 (SW480 cells [2]; x at 10 μM and 25 μM): −−− (very strong down-regulation (log^2 ratio of between −1.5 and −2)); Degree of modulation: SPANXC (SW480 cells [2]; x at 10 μM and 25 μM): −−− (very strong down-regulation (log^2 ratio of between −1.5 and −2)); Degree of modulation: SPANXE (SW480 cells [2]; x at 10 μM and 25 μM): −−− (very strong down-regulation (log^2 ratio of between −1.5 and −2)); Degree of modulation: SRY (sex determining region Y)-box 18 (SW480 cells [2]; x at 10 μM and 25 μM): − (moderate down-regulation (log^2 ratio of between −0.5 and −1.0)); Degree of modulation: TEA domain family member 4 (SW480 cells [2]; x at 10 μM and 25 μM): − (moderate down-regulation (log^2 ratio of between −0.5 and −1.0)); Degree of modulation: WNT1 inducible signaling pathway protein 3 (SW480 cells [2]; x at 10 μM and 25 μM): + (moderate up-regulation (log^2 ratio of between 0.5 and 1.0)); Degree of modulation: alkaline phosphatase, liver/bone/kidney (SW480 cells [2]; x at 10 μM and 25 μM): − (moderate down-regulation (log^2 ratio of between −0.5 and −1.0)); Degree of modulation: axin 2 (SW480 cells [2]; x at 10 μM and 25 μM): − (moderate down-regulation (log^2 ratio of between −0.5 and −1.0)); Degree of modulation: dickkopf homolog 1 (Xenopus laevis) (SW480 cells [2]; x at 10 μM and 25 μM): −− (strong down-regulation (log^2 ratio of between −1.0 and −1.5)); Degree of modulation: frizzled homolog 4 (Drosophila) (SW480 cells [2]; x at 10 μM and 25 μM): − (moderate down-regulation (log^2 ratio of between −0.5 and −1.0)); Degree of modulation: homeobox B2 (SW480 cells [2]; x at 10 μM and 25 μM): − (moderate down-regulation (log^2 ratio of between −0.5 and −1.0)); Degree of modulation: homeobox B5 (SW480 cells [2]; x at 10 μM and 25 μM): − (moderate down-regulation (log^2 ratio of between −0.5 and −1.0)); Degree of modulation: homeobox B7 (SW480 cells [2]; x at 10 μM and 25 μM): − (moderate down-regulation (log^2 ratio of between −0.5 and −1.0)); Degree of modulation: inhibitor of DNA binding 2, dominant negative helix-loop-helix protein (SW480 cells [2]; x at 10 μM and 25 μM): −− (strong down-regulation (log^2 ratio of between −1.0 and −1.5)); Degree of modulation: mitogen-activated protein kinase kinase 3 (SW480 cells [2]; x at 10 μM and 25 μM): + (moderate up-regulation (log^2 ratio of between 0.5 and 1.0)); Degree of modulation: naked cuticle homolog 1 (Drosophila) (SW480 cells [2]; x at 10 μM and 25 μM): − (moderate down-regulation (log^2 ratio of between −0.5 and −1.0)); Degree of modulation: peroxisome proliferator-activated receptor gamma (SW480 cells [2]; x at 10 μM and 25 μM): ++ (strong up-regulation (log^2 ratio of between 1.0 and 1.5)); Degree of modulation: prickle homolog 2 (Drosophila) (SW480 cells [2]; x at 10 μM and 25 μM): − (moderate down-regulation (log^2 ratio of between −0.5 and −1.0)); Degree of modulation: FYN oncogene related to SRC, FGR, YES (SW480 cells [2]; x at 10 μM only): + (moderate up-regulation (log^2 ratio of between 0.5 and 1.0)); Degree of modulation: T-cell lymphoma invasion and metastasis 1 (SW480 cells [2]; x at 10 μM only): + (moderate up-regulation (log^2 ratio of between 0.5 and 1.0)); Degree of modulation: catenin (cadherin-associated protein), alpha-like 1 (SW480 cells [2]; x at 10 μM only): − (moderate down-regulation (log^2 ratio of between −0.5 and −1.0)); Degree of modulation: gastrin (SW480 cells [2]; x at 10 μM only): − (moderate down-regulation (log^2 ratio of between −0.5 and −1.0)); Degree of modulation: low density lipoprotein receptor-related protein 5 (SW480 cells [2]; x at 10 μM only): + (moderate up-regulation (log^2 ratio of between 0.5 and 1.0)); Degree of modulation: mitogen-activated protein kinase kinase kinase 1 (SW480 cells [2]; x at 10 μM only): + (moderate up-regulation (log^2 ratio of between 0.5 and 1.0)); Degree of modulation: notum pectinacetylesterase homolog (Drosophila) (SW480 cells [2]; x at 10 μM only): ++ (strong up-regulation (log^2 ratio of between 1.0 and 1.5)); Degree of modulation: secreted frizzled-related protein 5 (SW480 cells [2]; x at 10 μM only): + (moderate up-regulation (log^2 ratio of between 0.5 and 1.0)); Degree of modulation: slowmo homolog 1 (Drosophila) (SW480 cells [2]; x at 10 μM only): − (moderate down-regulation (log^2 ratio of between −0.5 and −1.0)); Degree of modulation: transmembrane 4 L six family member 5 (SW480 cells [2]; x at 10 μM only): ++ (strong up-regulation (log^2 ratio of between 1.0 and 1.5)); Degree of modulation: A kinase (PRKA) anchor protein 1 (SW480 cells [2]; x at 25 μM only): + (moderate up-regulation (log^2 ratio of between 0.5 and 1.0)); Degree of modulation: CD44 molecule (Indian blood group) (SW480 cells [2]; x at 25 μM only): + (moderate up-regulation (log^2 ratio of between 0.5 and 1.0)); Degree of modulation: FOS-like antigen 1 (SW480 cells [2]; x at 25 μM only): + (moderate up-regulation (log^2 ratio of between 0.5 and 1.0)); Degree of modulation: PDZ and LIM domain 1 (SW480 cells [2]; x at 25 μM only): − (moderate down-regulation (log^2 ratio of between −0.5 and −1.0)); Degree of modulation: Sp5 transcription factor (SW480 cells [2]; x at 25 μM only): − (moderate down-regulation (log^2 ratio of between −0.5 and −1.0)); Degree of modulation: adenomatosis polyposis coli down-regulated 1 (SW480 cells [2]; x at 25 μM only): −− (strong down-regulation (log^2 ratio of between −1.0 and −1.5))

— patent US8883827B2, “Azole derivatives as WTN pathway inhibitors” (Oslo University Hospital HF, priority 2009, dated 2014)
